Measured values as given in patent publication US20260248834A1, “PHARMACEUTICAL COMPOSITION AND METHOD FOR TREATMENT OF HUMAN IMMUNODEFICIENCY VIRUS INFECTIONS” (Brii Biosciences, Inc., priority 2022, published 2026).
Each block holds one compound with its values, some of them ahead of it.

Columns and labels:
[1] = Intracellular half-life of EFdA triphosphate in human; assay type: in vivo; conditions: cells (intracellular; cell type not given), read-out: intracellular half-life of EFdA triphosphate (EFdA-TP) (converted)
[2] = Stability in Human Plasma (conversion to EFdA); assay type: in vitro ADME
Excerpt: (§1) The adenosine derivative having the Formula 1-A was produced according to the process described in PCT publication WO2021021717, published on Feb. 4, 2021, herein incorporated by reference. [table]

[3] = Stability in Human Liver S9 (conversion to EFdA); assay type: in vitro ADME
Excerpt: as §1

[4] = Phase I study: pharmacokinetics of ISL-TP in PBMCs; assay type: in vivo, human; conditions: for ISL-TP in PBMCs AUClast / ISL-TP in PBMCs Cmax: 3 weekly oral doses of 25 mg 1-A, healthy adults, mean
Excerpt: (§2) This example describes results from a Phase I, randomized, double-blind, placebo-controlled study for adenosine derivative having Formula 1-A (“1-A”), which is a prodrug of islatravir (ISL). Following oral absorption, 1-A is rapidly converted to ISL, which is metabolized intracellularly to the active metabolite, ISL triphosphate (ISL-TP). The objectives of the study were to assess the safety, tolerability, and PK profiles of 1-A and ISL in plasma; and ISL diphosphate (ISL-DP) and ISL-TP in human PBMCs.
(§3) Methods. Healthy adult subjects were enrolled in five single ascending dose and two multiple ascending dose cohorts. 1-A was administered to single dose cohorts in amounts of 10 mg, 25 mg, 50 mg, 100 mg or 200 mg. 1-A was administered to multiple dose cohorts in amounts of 10 mg per week for 3 weeks or 25 mg per week for 3 weeks. 1-A was orally administered in the fasted state using an oral solution formulation. Safety-related assessments included physical examinations, ECGs, vital signs, AEs, and standard clinical laboratory tests.

[5] = Phase I study: pharmacokinetics of 1-A and islatravir in plasma; assay type: in vivo, human
Excerpt: as §2, §3

[6] = Phase I study: safety and tolerability (treatment-emergent adverse events); assay type: in vivo, human
Procedure: Following oral absorption, 1-A is rapidly converted to ISL, which is metabolized intracellularly to the active metabolite, ISL triphosphate (ISL-TP). The objectives of the study were to assess the safety, tolerability, and PK profiles of 1-A and ISL in plasma; and ISL diphosphate (ISL-DP) and ISL-TP in human PBMCs.
as §3

[7] = single or multiple oral doses of 1-A, 10 mg to 200 mg

half-life [1]: ~108 h
SMILES: C#C[C@]1(COP(=O)(O)OP(=O)(O)OP(=O)(O)O)O[C@@H](n2cnc3c(N)nc(F)nc32)C[C@@H]1O [EFdA-TP, 4′-ethynyl-2-fluoro-2′-deoxyadenosine triphosphate]

SMILES: C#C[C@]1(COC(=O)OCc2oc(=O)oc2C)O[C@@H](n2cnc3c(N)nc(F)nc32)C[C@@H]1O [Formula 1-A, ((2R,3S,5R)-5-(6-amino-2-fluoro-9H-purin-9-yl)-2-ethynyl-3-hydroxytetrahydro-furan-2-yl)methyl ((5-methyl-2-oxo-1,3-dioxol-4-yl)methyl) carbonate]
half-life ([2]; human plasma): < 0.833 h
conversion to the target drug ([2]; human plasma assay): converted to the target drug efficiently
Stability in Human Plasma Formation of EFdA at 60 min ([2]; human plasma, 60 min): Yes
half-life ([3]; human liver S9): < 0.833 h
Stability in Human Liver S9 Formation of EFdA at 60 min ([3]; human liver S9, 60 min): Yes
conversion to the target drug ([3]; human liver S9 assay): converted to the target drug efficiently
ISL-TP in PBMCs AUClast ([4]; Day 1): 617 h*pmol/10^6 cells
ISL-TP in PBMCs Cmax ([4]; Day 1): 5.70 pmol/10^6 cells
ISL-TP in PBMCs AUClast ([4]; Day 15): 2210 h*pmol/10^6 cells
ISL-TP in PBMCs Cmax ([4]; Day 15): 15.4 pmol/10^6 cells
ISL-TP accumulation in PBMCs ([4]; after 3 weekly doses of 25 mg 1-A): significant ISL-TP accumulations
intracellular formation of ISL-TP in PBMCs ([4]; oral 1-A, dose-dependent manner): Efficient intracellular formation
PK profiles of ISL in plasma and ISL-TP in PBMC cells ([5]; after single and multiple oral administrations of 1-A): linear pharmacokinetics
systemic exposure to 1-A (plasma, LLOQ) ([5]; single or multiple oral administrations of 1-A up to 200 mg, healthy adults): < 1.0 ng/mL
EFdA accumulation in plasma [5, 7]: No meaningful EFdA accumulation
ISL plasma PK profiles [5, 7]: Dose-dependent
Number (%) of Subjects with Any Death ([6]; 10 mg QW × 3 oral (N = 3)): 0
Number (%) of Subjects with Any TEAE ([6]; 10 mg QW × 3 oral (N = 3)): 2 (66.7%)
Number (%) of Subjects with Any TEAE Grade 1 ([6]; 10 mg QW × 3 oral (N = 3)): 2 (66.7%)
Number (%) of Subjects with Any TEAE Grade 2, 3, 4, or 5 ([6]; 10 mg QW × 3 oral (N = 3)): 0
Number (%) of Subjects with Any TEAE Leading to Premature Discontinuation of Study Drug ([6]; 10 mg QW × 3 oral (N = 3)): 0
Number (%) of Subjects with Any TEAE Related to Study Drug ([6]; 10 mg QW × 3 oral (N = 3)): 2 (66.7%)
Number (%) of Subjects with Any TEAE Related to Study Drug Grade 1 ([6]; 10 mg QW × 3 oral (N = 3)): 2 (66.7%)
Number (%) of Subjects with Any TEAE Related to Study Drug Grade 2, 3, 4, or 5 ([6]; 10 mg QW × 3 oral (N = 3)): 0
Number (%) of Subjects with Any Treatment-emergent Serious AE ([6]; 10 mg QW × 3 oral (N = 3)): 0
Number (%) of Subjects with Any Death ([6]; 25 mg QW × 3 oral (N = 6)): 0
Number (%) of Subjects with Any TEAE ([6]; 25 mg QW × 3 oral (N = 6)): 2 (33.3%)
Number (%) of Subjects with Any TEAE Grade 1 ([6]; 25 mg QW × 3 oral (N = 6)): 2 (33.3%)
Number (%) of Subjects with Any TEAE Grade 2, 3, 4, or 5 ([6]; 25 mg QW × 3 oral (N = 6)): 0
Number (%) of Subjects with Any TEAE Leading to Premature Discontinuation of Study Drug ([6]; 25 mg QW × 3 oral (N = 6)): 0
Number (%) of Subjects with Any TEAE Related to Study Drug ([6]; 25 mg QW × 3 oral (N = 6)): 2 (33.3%)
Number (%) of Subjects with Any TEAE Related to Study Drug Grade 1 ([6]; 25 mg QW × 3 oral (N = 6)): 2 (33.3%)
Number (%) of Subjects with Any TEAE Related to Study Drug Grade 2, 3, 4, or 5 ([6]; 25 mg QW × 3 oral (N = 6)): 0
Number (%) of Subjects with Any Treatment-emergent Serious AE ([6]; 25 mg QW × 3 oral (N = 6)): 0
tolerability ([6]; single doses up to 200 mg and repeat doses up to 25 mg, healthy adults): generally well tolerated
